According to patent EP1484329A1, “Indole derivatives with apoptosis inducing activity” (Zentaris GmbH, priority 2003, dated 2004):
In brackets after ≈: the same amount, converted by molar mass. Like-named read-outs stand apart in the source and are kept apart here.

Legend:
[1] = test system: KB/HeLa; assay: XTT proliferation assay, KB/HeLa; format: cell-based; details: Homo sapiens, read-out: XTT Proliferationsassay, EC50 KB/Hela
Source text: (§1) Die Substanzen 1,2, 4-6 wurden in einem Proliferationstest an etablierten Tumorzelllinien auf ihre anti-proliferative Aktivität hin untersucht (D.A. Scuderio et al. Cancer Res. 1988, 48, 4827-4833). Der verwendete Test bestimmt die zelluläre Dehydrogenase-Aktivität und ermöglicht eine Bestimmung der Zellvitalität und indirekt der Zellzahl. Bei den verwendeten Zelllinien handelt es sich um die humane Cervixkarzinom Zelllinie KB/HeLa (ATCC CCL17), die ovariale Adenokarzinomzelllinie SKOV-3 (ATCC HTB77), die humane Glioblastom Zelllinie SF-268 (NCI 503138) und die Lungenkarzinom Zelllinie NCI-H460 (NCI 503473). Des weiteren wurde zur Untersuchung der Zellzyklus-spezifischen Wirkung der Substanz ein RKOp27 Zellsystem verwendet (M. Schmidt et al. Oncogene19(20):2423-9, 2000). Bei RKO handelt es sich um eine humane Kolonkarzinomlinie, in der der Zellzyklusinhibitor p27 ^kip1 mittels des Ecdyson Expressionssystems induziert zur Expression gebracht und zu einem Zellzyklusarrest spezifisch in G2 geführt werden kann. Eine unspezifisch wirkende Substanz hemmt die Proliferation unabhängig davon, ob die RKO Zelle in G1 oder G2 arretiert ist oder nicht. Zellzyklus-spezifische Substanzen wie beispielsweise Tubulininhibitoren sind hingegen nur dann zytotoxisch, wenn Zellen nicht arretiert sind und der Zellzyklus durchlaufen wird. In Tabelle 1 ist die zytotoxische bzw. wachstumshemmende Aktivität der beschriebenen Verbindungen mit / ohne Expression von p27^kip1gezeigt. Die getesteten Verbindungen zeigten im induzierten Zustand von p27^kiP1 keine zytotoxische Aktivität. Die Ergebnisse zeigen eine sehr potente Hemmung der Proliferation ausgewählter Tumorzelllinien durch die genannten Substanzen.

[2] = test system: SF-268; assay: XTT proliferation assay, SF-268; format: cell-based; details: Homo sapiens, read-out: XTT Proliferationsassay, EC50 SF-268
Source text: as §1

[3] = test system: L1210; assay: XTT proliferation assay, L1210 (wild type); format: cell-based, murine
Source text: as §1, with “Substanzen. Tabelle 1:” for “Substanzen.”
(§2) Zur weiteren Charakterisierung wurden die Substanzen 1,2,4-6 gegenüber multi drug resistenten Zelllinien im Vergleich zu den nicht-resistenten Wildtypzelllinien untersucht.
(§3) Bei den untersuchten Zelllinien handelt es sich um die murine L1210, die akute myeloische Leukaemie Zelllinie LT12 und um die resistenten Linien L1210/mdr und LT12/mdr. Außerdem wurden die murine P388 Zelllinie (methyl-cholanthreneinduced lymphoid neoplasm) sowie die Doxorubicin-resistente P388 als Testsysteme herangezogen.

[4] = test system: L1210VCR; assay: XTT proliferation assay, L1210VCR (resistant); format: cell-based, murine
Source text: as §1, with “Substanzen. Tabelle 1:” for “Substanzen.”
as §2, §3

[5] = test system: KB/HeLa Zellen; assay: Cell cycle analysis (G2/M arrest); format: cell-based; details: Homo sapiens, read-out: EC50 in nM (50% cells in G2/M)
Experimental: Für die Zellzyklusanalyse wurden KB/HeLa Zellen mit den Testsubstanzen in unterschiedlichen Konzentrationen (0.1-1000 nM) 24 Stunden bei 37°C behandelt.
Der prozentuale Anteil der in der G2/M Phase des Zellzyklus arrettierten Zellen nach Behandlung mit Referenz- oder ausgewählten Testsubstanzen ist in der nachfolgenden Tabelle 5 dargestellt. Die Ergebnisse wurden mit einer speziellen Analysesoftware (ModFit™) ausgewertet.

[6] = test system: humanen Xenograft-Modellen; assay: In vivo activity in xenograft models; design: species or system human; details: Hautkrebs, Nierenzellkarzinom und Brustkrebs
Source text: Die in vivo Aktivität der Verbindung 2 wurde an verschiedenen humanen Xenograft-Modellen überprüft.

[7] = test system: Salmonella thyphimurium TA100; format: cell-based; details: for AMESTA100 mit S9: with rat liver S9; for AMESTA100 ohne S9: without S9
Experimental: (§4) Die Verbindung 2 wurde in einem Fluktuationsassay gegenüber den Mutanten-Stämmen TA98 und TA100 des Bakteriums Salmonella thyphimurium bei drei Konzentrationen (2.5; 5 und 10µM) auf Mutagenität hin untersucht. Die Mutagenitätsuntersuchungen wurden ferner in Gegenwart des Rattenleberenzyms S9 durchgeführt.

[8] = test system: Salmonella thyphimurium TA98; format: cell-based; details: for AMES TA98 mit S9: with rat liver S9; for AMES TA98 ohne S9: without S9
Experimental: as §4

[9] = format: in vivo, Mäuse (CD-1 Mausstamm); details: for Effekte 7 Tage nach Gabe / Effekte 1 h nach Gabe / Effekte 2 h nach Gabe / Effekte 24 h nach Gabe / Temp. (rektal): single dose; for Temp. (rektal): measured 1 hour after application
Experimental: Zur Beurteilung und Abschätzung möglicher Nebenwirkungen (neurodegenerative, phsychotrope Effekte etc.) bzw. toxischer Effekte ausgehend von der Verbindung 2 wurden Mäuse (CD-1 Mausstamm) in einem modifizierten Irwin-Grid Modell bei einmaliger Gabe (5, 10 und 20 mg/kg; p.o.) über eine Zeitdauer von 7 Tagen beobachtet (S. Irwin et al. Psychopharmacologia 1968, 13, 222-257). Die Ergebnisse hierzu werden in nachfolgender Tabelle 7 gezeigt: Tabelle 7: […]

SMILES: O=C(Nc1ccc2ncccc2c1)C(=O)c1cn(Cc2ccc(Cl)cc2)c2ccccc12 [Verbindung 2, 2-[1-(4-Chlor-benzyl)-1 H-indol-3-yl]-2-oxo-N-chinolin-6-yl-acetamid]
- EC50 [1]: 0.027 µg/mL (≈ 0.0614 µM)
- EC50 [2]: 0.027 µg/mL (≈ 0.0614 µM)
- EC50 ([3]; Mus musculus, L1210, read-out: XTT Proliferationsassay, EC50 L1210): 0.074 µg/mL (≈ 0.168 µM)
- EC50 ([4]; Mus musculus, read-out: XTT Proliferationsassay, EC50 L1210VCR): 0.078 µg/mL (≈ 0.177 µM)
- EC50 ([5]; HeLa, 24 h): 52.3 nM
- Tumorwachstum in Xenograft-Modellen [6]: das Tumorwachstum in verschiedenen Xenograft-Modellen hemmt
- AMESTA100 mit S9 ([7]; 2.5 µM): inaktiv
- AMESTA100 ohne S9 ([7]; 2.5 µM): inaktiv
- AMESTA100 mit S9 ([7]; 5 µM): inaktiv
- AMESTA100 ohne S9 ([7]; 5 µM): inaktiv
- AMESTA100 mit S9 ([7]; 10 µM): inaktiv
- AMESTA100 ohne S9 ([7]; 10 µM): inaktiv
- AMES TA98 mit S9 ([8]; 2.5 µM): inaktiv
- AMES TA98 ohne S9 ([8]; 2.5 µM): inaktiv
- AMES TA98 mit S9 ([8]; 5 µM): inaktiv
- AMES TA98 ohne S9 ([8]; 5 µM): inaktiv
- AMES TA98 mit S9 ([8]; 10 µM): inaktiv
- AMES TA98 ohne S9 ([8]; 10 µM): inaktiv
- Effekte 7 Tage nach Gabe ([9]; 5 mg/kg p.o.): Kein Effekt
- Effekte 1 h nach Gabe ([9]; 5 mg/kg p.o.): Kein Effekt
- Effekte 2 h nach Gabe ([9]; 5 mg/kg p.o.): Kein Effekt
- Effekte 24 h nach Gabe ([9]; 5 mg/kg p.o.): 2/6 Durchfall
- Temp. (rektal) ([9]; 5 mg/kg p.o.): 37.5 ± 0.2
- Effekte 7 Tage nach Gabe ([9]; 10 mg/kg p.o.): Kein Effekt
- Effekte 1 h nach Gabe ([9]; 10 mg/kg p.o.): 1/6 Aufregung 1/6 Hyperreaktivität 1/6 Reizbarkeit 2/6 Berührungsrea ktivität 1/6 Stimmfähigkeit
- Effekte 2 h nach Gabe ([9]; 10 mg/kg p.o.): 2/6 Schwanzhypert onie 1/6 Hyperreaktivität 1/6 Reizbarkeit 1/6 Berührungsrea ktivität 1/6 Stimmfähigkeit
- Effekte 24 h nach Gabe ([9]; 10 mg/kg p.o.): Kein Effekt
- Temp. (rektal) ([9]; 10 mg/kg p.o.): 37.1 ± 0.1
- Effekte 7 Tage nach Gabe ([9]; 20 mg/kg p.o.): Kein Effekt
- Effekte 1 h nach Gabe ([9]; 20 mg/kg p.o.): Kein Effekt
- Effekte 2 h nach Gabe ([9]; 20 mg/kg p.o.): Kein Effekt
- Effekte 24 h nach Gabe ([9]; 20 mg/kg p.o.): 1/6 Durchfall
- Temp. (rektal) ([9]; 20 mg/kg p.o.): 37.4 ± 0.1
- toxische Effekte im modifizierten Irwin-Grid Test ([9]; single dose 5, 10 and 20mg/kg, overall conclusion): keine toxischen Effekte

SMILES: O=C(Nc1cnc2nccnc2c1)C(=O)c1cn(Cc2ccc(Cl)cc2)c2ccccc12 [Verbindung 5, 2-[1-(4-Chlor-benzyl)-1H-indol-3-yl]-2-oxo-N-pyrido[2,3-b]pyrazin-7-yl-acetamid]
- EC50 [1]: 0.045 µg/mL (≈ 0.102 µM)
- EC50 [2]: 0.042 µg/mL (≈ 0.095 µM)
- EC50 ([3]; Mus musculus, L1210; read-out: XTT Proliferationsassay, EC50 L1210): 0.018 µg/mL (≈ 0.0407 µM)
- EC50 ([4]; Mus musculus; read-out: XTT Proliferationsassay, EC50 L1210VCR): 0.021 µg/mL (≈ 0.0475 µM)
- EC50 ([5]; KB/HeLa, 24 h at 37°C, 0.1-1000 nM): 31.9 nM
